SMILES strings stand for the structures.

One experiment concerns the target T1, human NPR1 (Homo sapiens, UniProt P16066).
T1 construct: host or cells: CHO-K1
T1 sequence (P16066 33-1061): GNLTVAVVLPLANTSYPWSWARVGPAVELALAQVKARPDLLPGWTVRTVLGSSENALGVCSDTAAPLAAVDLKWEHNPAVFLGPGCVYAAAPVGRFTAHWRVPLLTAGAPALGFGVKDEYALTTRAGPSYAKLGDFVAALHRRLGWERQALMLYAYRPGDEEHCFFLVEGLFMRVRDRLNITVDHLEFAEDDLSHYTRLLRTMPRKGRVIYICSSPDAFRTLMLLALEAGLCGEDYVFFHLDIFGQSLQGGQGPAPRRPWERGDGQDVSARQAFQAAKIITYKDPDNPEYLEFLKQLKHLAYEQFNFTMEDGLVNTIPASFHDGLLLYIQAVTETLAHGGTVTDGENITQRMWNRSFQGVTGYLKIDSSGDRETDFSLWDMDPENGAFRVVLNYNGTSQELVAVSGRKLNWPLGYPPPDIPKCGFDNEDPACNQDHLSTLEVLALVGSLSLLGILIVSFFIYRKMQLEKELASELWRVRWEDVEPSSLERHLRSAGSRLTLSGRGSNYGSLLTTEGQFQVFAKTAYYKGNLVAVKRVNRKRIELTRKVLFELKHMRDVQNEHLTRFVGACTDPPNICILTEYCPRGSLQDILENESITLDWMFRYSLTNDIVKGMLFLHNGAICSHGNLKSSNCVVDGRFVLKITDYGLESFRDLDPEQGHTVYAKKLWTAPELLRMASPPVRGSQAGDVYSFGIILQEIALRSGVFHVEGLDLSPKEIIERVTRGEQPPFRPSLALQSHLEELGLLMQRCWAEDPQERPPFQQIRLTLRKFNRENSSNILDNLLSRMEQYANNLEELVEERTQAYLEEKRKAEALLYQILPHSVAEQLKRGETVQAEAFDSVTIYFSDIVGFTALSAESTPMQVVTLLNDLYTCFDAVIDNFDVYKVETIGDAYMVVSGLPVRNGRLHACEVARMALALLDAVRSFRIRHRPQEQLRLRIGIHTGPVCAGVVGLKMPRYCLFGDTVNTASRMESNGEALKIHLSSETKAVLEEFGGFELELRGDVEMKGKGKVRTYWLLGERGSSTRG
In words: Cellular cGMP production assay, human NPR1 expressing CHO-K1 cells (CisBio HTRF). Conditions: for AC50: cGMP production, 30 min at 37° C., 12-point dose-response from 30 μM; for Human NPR1 Amax (% of ANP): maximum cGMP production as percentage of the maximum cGMP produced with ANP. In kind it is cell-based. The essentials: (§1)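 Read-out was HTRF (excitation 317 nm, emission 665 nm), with cGMP quantified as Delta F against a calibrator standard curve. Beforehand, cells were exposed for 30 min at 37 °C to compound (30 μM top, twelve 3-fold steps) in IBMX-containing PBS/BSA buffer, then lysed.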
For orientation: TR-FRET usually uses a lanthanide donor and a delayed reading to cut background.

The target in another experiment is monkey NPR1 (Macaca fascicularis, UniProt A0A7N9DBT9). Nature of the experiment: Cellular cGMP production assay, monkey NPR1 expressing CHO-K1 cells (CisBio HTRF). The experiment is classed as cell-based. To be noted: monkey NPR1 CHO-K1 cells; for AC50: cGMP production, 30 min at 37° C., 12-point dose-response from 30 μM, read-out: Monkey NPR1 AC50; for Monkey NPR1 Amax (% of ANP): maximum cGMP production as percentage of the maximum cGMP produced with ANP. The gist of the method: as §1
Sequence of monkey NPR1 (A0A7N9DBT9 entry or part of it): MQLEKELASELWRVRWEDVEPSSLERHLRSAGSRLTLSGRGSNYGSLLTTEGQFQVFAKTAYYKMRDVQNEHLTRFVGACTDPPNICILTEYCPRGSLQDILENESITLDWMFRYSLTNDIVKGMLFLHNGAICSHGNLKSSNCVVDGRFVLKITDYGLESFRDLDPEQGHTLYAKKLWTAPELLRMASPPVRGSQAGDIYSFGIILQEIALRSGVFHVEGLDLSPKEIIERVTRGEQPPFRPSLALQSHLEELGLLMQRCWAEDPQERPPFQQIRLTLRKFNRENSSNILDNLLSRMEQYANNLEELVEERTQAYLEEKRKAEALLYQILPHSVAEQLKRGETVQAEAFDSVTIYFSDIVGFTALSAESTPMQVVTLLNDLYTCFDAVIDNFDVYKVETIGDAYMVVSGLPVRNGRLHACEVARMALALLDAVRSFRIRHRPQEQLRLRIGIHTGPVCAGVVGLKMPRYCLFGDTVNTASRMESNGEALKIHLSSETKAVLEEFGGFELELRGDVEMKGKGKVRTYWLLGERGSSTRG

As a reminder, the AC50 is the concentration giving half of the maximal activity seen. As for `CC[C@H]([C@H]1CC[C@H](C(=O)O)CC1)N(C)c1nc2c(c(N[C@@H](CN3CCC[C@H](CO)C3)c3cnn(C)c3)n1)C[C@H](c1cccc(F)c1)CC2` [Compound 72, (1R,4r)-4-((R)-1-(((R)-6-(3-fluorophenyl)-4-(((R)-2-((S)-3-(hydroxymethyl)piperidin-1-yl)-1-(1-methyl-1H-pyrazol-4-yl)ethyl)amino)-5,6,7,8-tetrahydroquinazolin-2-yl)(methyl)amino)propyl)cyclohexane-1-carboxylic acid], at human NPR1, the AC50 was determined as 242 nM and the “Human NPR1 Amax (% of ANP)” value was 99.718 % of ANP. Also, at monkey NPR1, the half-maximal activity concentration (AC50) was 137 nM and the “Monkey NPR1 Amax (% of ANP)” value is 104.824 % of ANP.
Turning to `CC[C@@H](Nc1nc2c(c(N[C@@H](CN3CCCCCC3)c3cnn(CC)c3)n1)C[C@H](c1ccccc1)CC2)[C@H]1CC[C@H](C(=O)O)CC1` [Compound 94, (1R,4r)-4-((R)-1-(((R)-4-(((R)-2-(azepan-1-yl)-1-(1-ethyl-1H-pyrazol-4-yl)ethyl)amino)-6-phenyl-5,6,7,8-tetrahydroquinazolin-2-yl)amino)propyl)cyclohexane-1-carboxylic acid], at human NPR1, the half-maximal activity concentration (AC50) is 326 nM and the “Human NPR1 Amax (% of ANP)” value is on record as 101.620 % of ANP. Also, at monkey NPR1, the AC50 was 226 nM and the “Monkey NPR1 Amax (% of ANP)” value is on record as 105.567 % of ANP.
For `CC(Nc1nc2c(c(N[C@@H](CN3CCCC3)c3ccccc3)n1)CC(c1ccccc1)CC2)[C@H]1CC[C@H](C(=O)O)CC1` (stereo partly drawn) [Compound 158, (1S,4r)-4-((1S)-1-((6-phenyl-4-(((R)-1-phenyl-2-(pyrrolidin-1-yl)ethyl)amino)-5,6,7,8-tetrahydroquinazolin-2-yl)amino)ethyl)cyclohexane-1-carboxylic acid], on human NPR1, the half-maximal activity concentration (AC50) stood at 1430 nM and the “Human NPR1 Amax (% of ANP)” value is 109.837 % of ANP. Further, at monkey NPR1, the concentration at half-maximal activity (AC50) is 1270 nM and the “Monkey NPR1 Amax (% of ANP)” value was 165.777 % of ANP.
Take `CC[C@H]([C@H]1CC[C@H](C(=O)O)CC1)N(C)c1nc2c(c(N[C@@H](CN3CCC4CC4C3)c3cnn(C)c3)n1)C[C@H](c1ccccc1)CC2` (stereo partly drawn) [Compound 78, (1R,4r)-4-((1R)-1-(((6R)-4-(((1R)-2-(3-azabicyclo[4.1.0]heptan-3-yl)-1-(1-methyl-1H-pyrazol-4-yl)ethyl)amino)-6-phenyl-5,6,7,8-tetrahydroquinazolin-2-yl)(methyl)amino)propyl)cyclohexane-1-carboxylic acid]: on human NPR1, the half-maximal activity concentration (AC50) worked out at 254 nM and the “Human NPR1 Amax (% of ANP)” value is 99.406 % of ANP. Also, on monkey NPR1, the half-maximal activity concentration (AC50) came out at 212 nM and the “Monkey NPR1 Amax (% of ANP)” value is listed as 102.158 % of ANP.
The like results for `CC[C@H]([C@H]1CC[C@](F)(C(=O)O)CC1)N(C)c1nc2c(c(N[C@H](CN3CCC[C@H](C)C3)c3cnn(C)c3)n1)C[C@H](c1ccccc1)CC2` [Compound 82, (1S,4s)-1-fluoro-4-((R)-1-(methyl((R)-4-(((S)-1-(1-methyl-1H-pyrazol-4-yl)-2-((S)-3-methylpiperidin-1-yl)ethyl)amino)-6-phenyl-5,6,7,8-tetrahydroquinazolin-2-yl)amino)propyl)cyclohexane-1-carboxylic acid] were, in that order, 272 nM, 96.493 % of ANP, 278 nM and 106.556 % of ANP.
The like results for `CC[C@H]([C@H]1CC[C@H](C(=O)O)CC1)N(C)c1nc2c(c(N[C@@H](CN3CCC[C@H](COC)C3)c3cnn(C)c3)n1)C[C@H](c1cccc(F)c1)CC2` [Compound 35, (1R,4r)-4-((R)-1-(((R)-6-(3-fluorophenyl)-4-(((R)-2-((S)-3-(methoxymethyl)piperidin-1-yl)-1-(1-methyl-1H-pyrazol-4-yl)ethyl)amino)-5,6,7,8-tetrahydroquinazolin-2-yl)(methyl)amino)propyl)cyclohexane-1-carboxylic acid] were, in that order, 148 nM, 92.607 % of ANP, 127 nM and 104.934 % of ANP.

Source of the values: patent US12129246B1, “Hydroquinazoline derivatives for the treatment of a disease or disorder” (Novartis AG, priority 2023, dated 2024).
